Results as given in patent US7939341B2, “Membrane arrays and methods of manufacture” (Corning Incorporated, priority 2004, dated 2011).

Molecular target: motilin receptor (Motilin) (Homo sapiens, UniProt O43193)
Experiment: GPCR array functional assay (Eu-GTP binding) on GAPS coated porous slide, Motilin receptor
Assay type: biochemical
Conditions: agonist at 1 μM, 10 nM Eu-GTP, 3 μM GDP, 1 hour incubation, time-resolved fluorescence
Protocol: 2) Assays performing—the printed GPCR arrays are then incubated with assay buffers containing GTP analogue probes in the presence or absence of receptor agonist for certain time (e.g., 45 minutes), and at the end of incubation period the assay solutions are removed, the slides are rinsed with GTP wash buffer and dried with nitrogen;
3) Imaging—when Eu-GTP is used as a probe, the slides are then directly scanned using a time-resolved fluorescence imaging system; and, if biotin-GTPγS is used as a probe, an extra incubation step is often performed before imaging. For example, the array is then further incubated with Gold particles labeled streptavadin in order to detect bounded biotin-GTPγS, resonance light scattering imaging system is then used.
The EuGTP assay buffer contained 10 nM Eu-GTP, 50 mM HEPES buffer, pH 7.4, 3 μM GDP, 10 mM MgCl2, 100 mM NaCl, and 0.1% protein blocker. At the end of the incubation, the assay buffers were removed. Afterwards, slides were washed, dried and imaged with in-house developed time-resolved fluorescence imaging system.

Chain of motilin receptor (Motilin) (O43193 whole entry, species assumed): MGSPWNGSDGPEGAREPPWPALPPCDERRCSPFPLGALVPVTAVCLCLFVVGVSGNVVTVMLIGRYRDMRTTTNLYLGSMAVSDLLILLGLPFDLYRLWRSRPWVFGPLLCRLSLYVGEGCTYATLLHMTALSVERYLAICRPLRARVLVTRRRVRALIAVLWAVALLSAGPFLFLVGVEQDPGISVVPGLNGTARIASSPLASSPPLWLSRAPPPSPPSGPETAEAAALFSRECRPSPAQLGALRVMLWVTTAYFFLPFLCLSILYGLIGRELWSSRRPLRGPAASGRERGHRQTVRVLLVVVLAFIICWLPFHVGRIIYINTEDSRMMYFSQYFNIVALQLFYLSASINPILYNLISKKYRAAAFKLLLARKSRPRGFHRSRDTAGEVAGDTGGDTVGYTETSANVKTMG

In the case of `CC[C@H](C)[C@H](NC(=O)[C@@H]1CCCN1C(=O)[C@@H](NC(=O)[C@@H](N)Cc1ccccc1)C(C)C)C(=O)N[C@@H](Cc1ccccc1)C(=O)N[C@H](C(=O)N[C@@H](Cc1ccc(O)cc1)C(=O)NCC(=O)N[C@@H](CCC(=O)O)C(=O)N[C@@H](CC(C)C)C(=O)N[C@@H](CCC(N)=O)C(=O)N[C@@H](CCCNC(=N)N)C(=O)N[C@@H](CCSC)C(=O)N[C@@H](CCC(N)=O)C(=O)N[C@@H](CCC(=O)O)C(=O)N[C@@H](CCCCN)C(=O)N[C@@H](CCC(=O)O)C(=O)N[C@@H](CCCNC(=N)N)C(=O)N[C@@H](CC(N)=O)C(=O)N[C@@H](CCCCN)C(=O)NCC(=O)N[C@@H](CCC(N)=O)C(=O)O)[C@@H](C)O` [motilin], the “binding of EuGTP to the GPCR microspots (receptor activation by agonist)” value is reported as “increase the binding of EuGTP”.
